In PubChem BioAssay (NCI):
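Dose response: 5 concentrations. Exposure: 48 h. Format: 96-well plates. Endpoint: linear interpolation; highest concentration if not reached. The concentration for 50% growth inhibition is given as GI50. TGI: total growth inhibition.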

How the values were obtained:
Assay in all cases: NCI tumour cell line growth inhibition, 48 h
[1] = system: SF-295 CNS
[2] = system: HOP-92 NSCLC
[3] = system: HOP-62 NSCLC
[4] = system: K-562 leukemia
[5] = system: OVCAR-3 ovarian
[6] = system: HT29 colon
[7] = system: HL-60(TB) leukemia
[8] = system: NCI-H23 lung
[9] = system: NCI-H522 lung
[10] = system: SR leukemia
[11] = system: CAKI-1 renal
[12] = system: KM12 colon
[13] = system: SK-OV-3 ovarian
[14] = system: UACC-257 melanoma
[15] = system: MDA-MB-435
[16] = system: HCT-116 colon
[17] = system: PC-3 prostate
[18] = system: A549 NSCLC
[19] = system: MOLT-4 leukemia
[20] = system: OVCAR-4 ovarian
[21] = system: T-47D breast
[22] = system: HCT-15 colon
[23] = system: MALME-3M melanoma
[24] = system: MDA-MB-468 breast
[25] = system: NCI-H226 lung
[26] = system: ACHN renal
[27] = system: SW-620 colon
[28] = system: MDA-MB-231 breast
[29] = system: HCC-2998 colon
[30] = system: DU-145 prostate
[31] = system: M14 melanoma
[32] = system: EKVX NSCLC
[33] = system: OVCAR-8 ovarian
[34] = system: SF-268 CNS
[35] = system: 786-0 renal
[36] = system: RPMI-8226 leukemia
[37] = system: IGROV1 ovarian
[38] = system: SNB-19 CNS
[39] = system: SK-MEL-2 melanoma
[40] = system: SF-539 CNS
[41] = system: SN12C renal
[42] = system: SK-MEL-5 melanoma
[43] = system: TK-10 renal
[44] = system: CCRF-CEM leukemia
[45] = system: UACC-62 melanoma
[46] = system: LOX IMVI melanoma
[47] = system: SK-MEL-28 melanoma
[48] = system: HS 578T breast
[49] = system: NCI-H460 lung
[50] = system: OVCAR-5 ovarian
[51] = system: NCI/ADR-RES ovarian
[52] = system: A498 renal
[53] = system: U251 CNS
[54] = system: COLO 205 colon
[55] = system: BT-549 breast
[56] = system: RXF 393 renal
[57] = system: MCF7 breast
[58] = system: UO-31 renal
[59] = system: SNB-75 CNS

With `COc1ccc2[nH]cc(-c3nc(N)nnc3-c3cn(C)c4ncc(Br)cc34)c2c1` the GI50 [1] was 0.23 µM, the TGI [1] was 10.3 µM and the GI50 [2] was 0.572 µM. It also gave a TGI [2] of 14.3 µM, a GI50 [3] of 0.547 µM and a TGI [3] greater than 76.9 µM. The GI50 [4] was 0.085 µM, the TGI [4] was greater than 100 µM and the GI50 [5] was 0.25 µM. It also gave a TGI [5] of 2.66 µM, a GI50 [6] of 0.317 µM and a TGI [6] of 2.55 µM. For the same molecule, the GI50 [7] was 0.168 µM, the TGI [7] was 3.91 µM and the GI50 [8] was 0.461 µM. The TGI [8] was 21.7 µM, the GI50 [9] was 0.0266 µM and the TGI [9] was 0.12 µM. The GI50 [10] was 0.0693 µM, the TGI [10] was greater than 100 µM and the GI50 [11] was 0.342 µM. It also gave a TGI [11] greater than 50.8 µM, a GI50 [12] of 0.241 µM and a TGI [12] of 17.5 µM. It also gave a GI50 [13] of 0.482 µM, a TGI [13] of 48.1 µM and a GI50 [14] of 0.724 µM. For the same molecule, the TGI [14] was 27.8 µM, the GI50 [15] was 0.0379 µM and the TGI [15] was 0.205 µM. The GI50 [16] was 0.373 µM, the TGI [16] was 13.8 µM and the GI50 [17] was 0.311 µM. The TGI [17] was greater than 60.1 µM, the GI50 [18] was 0.769 µM and the TGI [18] was greater than 95.3 µM. It also gave a GI50 [19] of 0.524 µM, a TGI [19] greater than 76.7 µM and a GI50 [20] of 1.44 µM. It also gave a TGI [20] greater than 95.5 µM, a GI50 [21] of 0.192 µM and a TGI [21] of 97.2 µM. The GI50 [22] was 0.354 µM, the TGI [22] was 21.4 µM and the GI50 [23] was 0.335 µM. The TGI [23] was 23 µM, the GI50 [24] was 0.0301 µM and the TGI [24] was 0.631 µM. The GI50 [25] was 0.676 µM, the TGI [25] was 9.15 µM and the GI50 [26] was 0.642 µM. The TGI [26] was 30.5 µM, the GI50 [27] was 0.304 µM and the TGI [27] was greater than 62.4 µM. For the same molecule, the GI50 [28] was 0.882 µM, the TGI [28] was 48.6 µM and the GI50 [29] was 0.91 µM. The TGI [29] was 12.9 µM, the GI50 [30] was 0.446 µM and the TGI [30] was greater than 49.7 µM. The GI50 [31] was 0.292 µM, the TGI [31] was 30.3 µM and the GI50 [32] was 0.864 µM. It also gave a TGI [32] greater than 72.8 µM, a GI50 [33] of 0.851 µM and a TGI [33] of 22.9 µM. The GI50 [34] was 1.58 µM, the TGI [34] was 29.6 µM and the GI50 [35] was 0.545 µM. It also gave a TGI [35] of 22.2 µM, a GI50 [36] of 0.43 µM and a TGI [36] greater than 40.8 µM. It also gave a GI50 [37] of 0.923 µM, a TGI [37] of 25 µM and a GI50 [38] of 0.738 µM. The TGI [38] was greater than 100 µM, the GI50 [39] was 0.335 µM and the TGI [39] was 15.4 µM. For the same molecule, the GI50 [40] was 0.255 µM, the TGI [40] was 0.844 µM and the GI50 [41] was 0.494 µM. The TGI [41] was 26.4 µM, the GI50 [42] was 0.233 µM and the TGI [42] was 4.05 µM. It also gave a GI50 [43] of 13.1 µM, a TGI [43] of 42.4 µM and a GI50 [44] of 0.379 µM. It also gave a TGI [44] greater than 84.3 µM, a GI50 [45] of 0.184 µM and a TGI [45] of 13.3 µM. For the same molecule, the GI50 [46] was 0.484 µM, the TGI [46] was 20.1 µM and the GI50 [47] was 0.966 µM. For the same molecule, the TGI [47] was 34.4 µM, the GI50 [48] was 0.319 µM and the TGI [48] was greater than 78.3 µM. The GI50 [49] was 0.382 µM, the TGI [49] was 18 µM and the GI50 [50] was 0.568 µM. It also gave a TGI [50] greater than 100 µM, a GI50 [51] of 1.45 µM and a TGI [51] of 11.2 µM. It also gave a GI50 [52] of 12.6 µM, a TGI [52] of 48.1 µM and a GI50 [53] of 0.491 µM. It also gave a TGI [53] of 38.6 µM, a GI50 [54] of 0.305 µM and a TGI [54] of 1.18 µM. The GI50 [55] was 0.469 µM, the TGI [55] was 7.26 µM and the GI50 [56] was 0.244 µM. The TGI [56] was 3.89 µM, the GI50 [57] was 0.0756 µM and the TGI [57] was 25.3 µM. The GI50 [58] was 0.717 µM and the TGI [58] was 20.3 µM.

In the case of `O=C(CNc1nc(-c2ccccc2)cs1)Nc1ccc(Br)cc1`, the GI50 [1] is reported as 1.48 µM, the TGI [1] is reported as 4.1 µM and the GI50 [2] is reported as 1.4 µM. The TGI [2] was 3.1 µM, the GI50 [3] was 1.6 µM and the TGI [3] was 3.17 µM. The GI50 [4] was 0.309 µM, the TGI [4] was greater than 100 µM and the GI50 [5] was 0.747 µM. The TGI [5] was 1.93 µM, the GI50 [6] was 0.752 µM and the TGI [6] was 2.16 µM. The GI50 [7] was 1.32 µM, the TGI [7] was 49.2 µM and the GI50 [8] was 0.646 µM. For the same molecule, the TGI [8] was 1.89 µM, the GI50 [9] was 0.168 µM and the TGI [9] was 0.339 µM. The GI50 [10] was 0.47 µM, the TGI [10] was greater than 100 µM and the GI50 [11] was 0.917 µM. It also gave a TGI [11] of 2.3 µM, a GI50 [12] of 1.79 µM and a TGI [12] of 5.35 µM. For the same molecule, the GI50 [13] was 1.94 µM, the TGI [13] was 4.75 µM and the GI50 [14] was 1.41 µM. For the same molecule, the TGI [14] was 3.14 µM, the GI50 [15] was 1.02 µM and the TGI [15] was 2.79 µM. For the same molecule, the GI50 [16] was 0.507 µM, the TGI [16] was 1.66 µM and the GI50 [17] was 1.24 µM. For the same molecule, the TGI [17] was 3.62 µM, the GI50 [18] was 1.66 µM and the TGI [18] was 3.56 µM. The GI50 [19] was 0.424 µM, the GI50 [20] was 1.33 µM and the TGI [20] was 2.98 µM. The GI50 [22] was 0.469 µM, the TGI [22] was 1.16 µM and the GI50 [23] was 0.739 µM. The TGI [23] was 2.09 µM, the GI50 [24] was 0.532 µM and the TGI [24] was 1.18 µM. For the same molecule, the GI50 [25] was 1.12 µM, the TGI [25] was 3.51 µM and the GI50 [26] was 0.844 µM. The TGI [26] was 2.16 µM, the GI50 [27] was 0.759 µM and the TGI [27] was 2.3 µM. It also gave a GI50 [28] of 0.655 µM, a TGI [28] of 1.97 µM and a GI50 [29] of 1.45 µM. It also gave a TGI [29] of 2.77 µM, a GI50 [30] of 1.6 µM and a TGI [30] of 3.05 µM. For the same molecule, the GI50 [31] was 0.875 µM, the TGI [31] was 2.49 µM and the GI50 [32] was 1.42 µM. For the same molecule, the TGI [32] was 3.03 µM, the GI50 [33] was 1.66 µM and the TGI [33] was 6.07 µM. It also gave a GI50 [34] of 1.72 µM, a TGI [34] of 7.07 µM and a GI50 [35] of 0.798 µM. For the same molecule, the TGI [35] was 2.1 µM, the GI50 [36] was 0.396 µM and the TGI [36] was 1.89 µM. It also gave a GI50 [37] of 0.876 µM, a TGI [37] of 2.43 µM and a GI50 [38] of 1.48 µM. For the same molecule, the TGI [38] was 3.08 µM, the GI50 [39] was 1.32 µM and the TGI [39] was 2.7 µM. It also gave a GI50 [40] of 0.779 µM, a TGI [40] of 2.02 µM and a GI50 [41] of 0.649 µM. For the same molecule, the TGI [41] was 1.99 µM, the GI50 [42] was 0.707 µM and the TGI [42] was 1.87 µM. The GI50 [43] was 1.84 µM, the TGI [43] was 3.27 µM and the GI50 [44] was 0.245 µM. The TGI [44] was greater than 100 µM, the GI50 [45] was 0.903 µM and the TGI [45] was 2.32 µM. The GI50 [46] was 0.296 µM, the TGI [46] was 1.29 µM and the GI50 [47] was 1.58 µM. For the same molecule, the TGI [47] was 2.97 µM, the GI50 [48] was 2.14 µM and the TGI [48] was 22.3 µM. It also gave a GI50 [49] of 1.43 µM, a TGI [49] of 3.42 µM and a GI50 [50] of 1.61 µM. The TGI [50] was 3.02 µM, the GI50 [51] was 0.557 µM and the TGI [51] was 3.68 µM. For the same molecule, the GI50 [52] was 3.65 µM, the TGI [52] was 7.99 µM and the GI50 [53] was 0.525 µM. It also gave a TGI [53] of 1.34 µM, a GI50 [59] of 1.13 µM and a TGI [59] of 5.94 µM. It also gave a GI50 [54] of 1.3 µM, a TGI [54] of 2.84 µM and a GI50 [55] of 0.498 µM. For the same molecule, the TGI [55] was 1.68 µM, the GI50 [56] was 1.15 µM and the TGI [56] was 2.54 µM. The GI50 [57] was 0.625 µM, the TGI [57] was 1.94 µM and the GI50 [58] was 1.05 µM. The TGI [58] was 2.33 µM.
